# Experimental data: patent US8581605B2 (priority 2006, dated 2013)
# Target: αHL ion channel (Staphylococcus aureus, UniProt P09616)
# Format: biochemical
# Settings: pH 7.4
# Sequence of αHL ion channel (P09616 27-319 limits assumed): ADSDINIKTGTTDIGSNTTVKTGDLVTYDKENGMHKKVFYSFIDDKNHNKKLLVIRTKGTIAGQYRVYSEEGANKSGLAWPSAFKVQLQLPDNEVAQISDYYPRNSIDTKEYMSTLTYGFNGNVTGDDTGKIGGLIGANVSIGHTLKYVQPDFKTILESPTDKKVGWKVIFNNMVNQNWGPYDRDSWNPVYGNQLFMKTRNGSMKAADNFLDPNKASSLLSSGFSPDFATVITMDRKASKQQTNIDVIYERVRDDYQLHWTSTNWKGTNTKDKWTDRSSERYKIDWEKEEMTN
substance,measurement,value
hepta-6-sulfato-β-cyclodextrin [s7βCD],reduction of conductance through the αHL when s7βCD is bound,~90%
